Values of other authors, collected in patent US20230330076A1, “CONTROLLED RELEASE FORMULATIONS OF FLAVOXATE AND PROCESS FOR PREPARATION THEREOF” (priority 2021, published 2023).
Like-named read-outs stand apart in the source and are kept apart here.

Columns and labels:
[1] = system: α- and β-noradrenergic, muscarinic, serotoninergic and opiate receptors, and calcium binding sites; settings: rat brain tissue
[2] = not given; remark: listed apart in the source

Row | apparent volume of distribution (in vivo, iv, 100 mg) [L/kg] | Compound | binding activity on receptors [1] | T½ (IV dose equimolar to 100 mg) [h] | apparent volume of distribution (IV dose equimolar to 100 mg) [L/kg] | dose excreted as MFCA (IV dose equimolar to 100 mg, urine) [%] | time of peak level of MFCA ([2]; single oral 200 mg dose) [min] | time of peak level of MFCA ([2]; single oral 400 mg dose) | AUC for the 400 mg dose relative to the 200 mg dose ([2]; single oral dosing) | dose excreted as MFCA ([2]; single oral dosing, within 12 hours)
1 | – | Cc1c(-c2ccccc2)oc2c(C(=O)OCCN3CCCCC3)cccc2c1=O.Cl [Flavoxate hydrochloride, 2-piperidinoethyl 3-methylflavone-8-carboxylate hydrochloride] | only weak binding activity | 1.39 | 2.89 | 47 | 30 to 60 | around two hours | approximately twice as large | About 50%
2 | 0.20 | 3-methylflavone carboxylic acid [MFCA] | – | – | – | – | – | – | – | –
